Source: US20240238423A9, “TETRAHYDROISOQUINOLINE HETEROBIFUNCTIONAL BCL-XL DEGRADERS” (Treeline Biosciences, Inc., priority 2022, published 2024)

Molecular target: T1, Human BCL-XL protein (N-terminal HiBiT tagged BCL-XL in HT1080 cells) (Homo sapiens, UniProt Q07817)
T1 construct: expressed in transfected cells; host or cells: HT-1080 (ATCC CCL-121), stably transduced with lentivirus pLV-UBC-N-HiBiT-BCL-XL-PGK-puro and selected with puromycin
Test: HiBiT based degradation assay
Type: cell-based
Settings: HT1080 cells expressing HiBiT-BCL-XL, 24 h; for Ymin (24 h): BCL-XL degradation normalized with DMSO control; for DC50: BCL-XL degradation, read-out: EC50 (24 h)
Outline: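 This HiBiT degradation assay measured loss of BCL-XL in HT1080 cells that stably express an N-terminal HiBiT-BCL-XL fusion delivered by lentivirus. Cells were added to compound-spotted 384-well plates, and luminescence was read on a PHERAstar FSX reader. Signal was expressed relative to DMSO controls, curves were fitted by four-parameter logistic regression, and for hook-shaped curves the Ymin point served as the bottom plateau when calculating EC50.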

T1 sequence (Q07817 whole entry): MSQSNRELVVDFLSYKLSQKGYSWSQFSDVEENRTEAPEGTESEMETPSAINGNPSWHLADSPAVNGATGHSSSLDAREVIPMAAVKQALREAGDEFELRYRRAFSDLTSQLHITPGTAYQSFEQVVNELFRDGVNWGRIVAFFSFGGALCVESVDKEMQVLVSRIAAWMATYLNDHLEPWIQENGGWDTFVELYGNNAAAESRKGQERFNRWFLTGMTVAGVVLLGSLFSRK

Row | Compound | Ymin (24 h) | DC50 [nM]
1 | Cc1c(O[C@H]2CC[C@H](CCCCN3CCN(c4cccc5c(C6CCC(=O)NC6=O)nn(C)c45)C[C@H]3C)CC2)cccc1-c1ccc(N2CCc3cccc(C(=O)Nc4nc5ccccc5s4)c3C2)nc1C(=O)O (stereo partly drawn) [Compound 345a, 6-(8-(benzo[d]thiazol-2-ylcarbamoyl)-3,4-dihydroisoquinolin-2(1H)-yl)-3-(3-(((1s,4r)-4-(4-((2R)-4-(3-(2,6-dioxopiperidin-3-yl)-1-methyl-1H-indazol-7-yl)-2-methylpiperazin-1-yl)butyl)cyclohexyl)oxy)-2-methylphenyl)picolinic acid] | A (Ymin < 50%) | < 100
2 | Cc1c(O[C@H]2CC[C@H](CCCCN3CCN(c4ccc5c(C6CCC(=O)NC6=O)nn(C)c5c4)C[C@@H]3C(F)(F)F)CC2)cccc1-c1ccc(N2CCc3cccc(C(=O)Nc4nc5ccccc5s4)c3C2)nc1C(=O)O (stereo partly drawn) [Compound 346a, 6-(8-(benzo[d]thiazol-2-ylcarbamoyl)-3,4-dihydroisoquinolin-2(1H)-yl)-3-(3-(((1s,4r)-4-(4-((2R)-4-(3-(2,6-dioxopiperidin-3-yl)-1-methyl-1H-indazol-6-yl)-2-(trifluoromethyl)piperazin-1-yl)butyl)cyclohexyl)oxy)-2-methylphenyl)picolinic acid] | A (Ymin < 50%) | < 100
3 | Cc1c(O[C@H]2CC[C@H](CCCCN3CCN(c4ccc5c(C6CCC(=O)NC6=O)nn(C)c5c4)C[C@H]3C(F)(F)F)CC2)cccc1-c1ccc(N2CCc3cccc(C(=O)Nc4nc5ccccc5s4)c3C2)nc1C(=O)O (stereo partly drawn) [Compound 346b, 6-(8-(benzo[d]thiazol-2-ylcarbamoyl)-3,4-dihydroisoquinolin-2(1H)-yl)-3-(3-(((1r,4r)-4-(4-((2S)-4-(3-(2,6-dioxopiperidin-3-yl)-1-methyl-1H-indazol-6-yl)-2-(trifluoromethyl)piperazin-1-yl)butyl)cyclohexyl)oxy)-2-methylphenyl)picolinic acid] | A (Ymin < 50%) | < 100
4 | Cc1c(O[C@H]2CC[C@H](CCCN3CCN(c4ccc5c(C6CCC(=O)NC6=O)nn(C)c5c4)C[C@@H]3C(F)(F)F)CC2)cccc1-c1ccc(N2CCc3cccc(C(=O)Nc4nc5ccccc5s4)c3C2)nc1C(=O)O (stereo partly drawn) [Compound 347a, 6-(8-(benzo[d]thiazol-2-ylcarbamoyl)-3,4-dihydroisoquinolin-2(1H)-yl)-3-(3-(((1s,4r)-4-(3-((2R)-4-(3-(2,6-dioxopiperidin-3-yl)-1-methyl-1H-indazol-6-yl)-2-(trifluoromethyl)piperazin-1-yl)propyl)cyclohexyl)oxy)-2-methylphenyl)picolinic acid] | A (Ymin < 50%) | < 100
5 | Cc1c(O[C@H]2CC[C@H](CCCN3CCN(c4ccc5c(C6CCC(=O)NC6=O)nn(C)c5c4)C[C@H]3C(F)(F)F)CC2)cccc1-c1ccc(N2CCc3cccc(C(=O)Nc4nc5ccccc5s4)c3C2)nc1C(=O)O (stereo partly drawn) [Compound 347b, 6-(8-(benzo[d]thiazol-2-ylcarbamoyl)-3,4-dihydroisoquinolin-2(1H)-yl)-3-(3-(((1r,4r)-4-(3-((2S)-4-(3-(2,6-dioxopiperidin-3-yl)-1-methyl-1H-indazol-6-yl)-2-(trifluoromethyl)piperazin-1-yl)propyl)cyclohexyl)oxy)-2-methylphenyl)picolinic acid] | A (Ymin < 50%) | < 100
6 | Cc1c(O[C@H]2CC[C@H](CCCC(C)(C)N3CCN(c4ccc5c(C6CCC(=O)NC6=O)nn(C)c5c4)CC3)CC2)cccc1-c1ccc(N2CCc3cccc(C(=O)Nc4nc5ccccc5s4)c3C2)nc1C(=O)O (stereo partly drawn) [Compound 350a, 6-(8-(benzo[d]thiazol-2-ylcarbamoyl)-3,4-dihydroisoquinolin-2(1H)-yl)-3-(3-(((1s,4r)-4-(4-(4-(3-(2,6-dioxopiperidin-3-yl)-1-methyl-1H-indazol-6-yl)piperazin-1-yl)-4-methylpentyl)cyclohexyl)oxy)-2-methylphenyl)picolinic acid] | A (Ymin < 50%) | < 100
